Where two headings read alike, the source gives them in different places.

The target in one data set is T1, cyp2b1 (Rattus norvegicus, UniProt P00176).
T1 sequence (P00176 1-491): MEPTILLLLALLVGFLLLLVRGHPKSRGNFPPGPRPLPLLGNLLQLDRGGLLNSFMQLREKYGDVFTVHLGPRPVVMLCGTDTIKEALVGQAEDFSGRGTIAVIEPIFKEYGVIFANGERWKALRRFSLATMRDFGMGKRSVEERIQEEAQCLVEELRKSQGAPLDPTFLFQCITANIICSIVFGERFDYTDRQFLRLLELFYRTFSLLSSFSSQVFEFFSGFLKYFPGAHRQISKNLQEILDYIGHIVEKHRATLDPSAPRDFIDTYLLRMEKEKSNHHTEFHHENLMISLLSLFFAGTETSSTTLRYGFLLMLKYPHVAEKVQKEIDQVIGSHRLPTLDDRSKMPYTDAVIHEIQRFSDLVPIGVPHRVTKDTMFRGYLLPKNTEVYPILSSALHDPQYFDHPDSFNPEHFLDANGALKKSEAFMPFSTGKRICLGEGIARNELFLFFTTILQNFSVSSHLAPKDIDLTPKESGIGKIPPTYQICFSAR
Put plainly: Mechanism of inhibition (Lineweaver-Burk plots), bupropion in RLMs. It counts as in vitro ADME. On the set-up: from tissue; host or cells: rat liver microsomes, prepared in-house. The method, then: To elucidate the mechanism of inhibition of cyp2b1 and 2c11 by poziotinib, we examined the interaction of different concentrations of poziotinib with bupropion and tolbutamide, respectively. Poziotinib was preincubated with 1 mg/ml of RLMs and probe substrate in a 37°C shaking water bath for 5 min, following which NADPH was added and incubated for 30 min. The concentrations of poziotinib were 0, 2, 4, 8 and 16 μM for 2b1, 0, 5, 10 20 and 40 μM for 2c11. The concentrations of bupropion were 5, 10, 20, and 40 μM, and the concentrations of tolbutamide were 25, 50, 100, and 200 μM. Poziotinib was incubated with different concentrations of the probe substrates in triplicate. The reactions were carried out, stopped, and processed as described in 2.3. Lineweaver-Burk plots were graphed.

A further data set relates to CYP3A4 and CYP2D6. Also noted: method as in Kim et al., 2013. The conditions noted are these: LC-MS/MS; ref Kim et al., 2013; cited from earlier work.
For data set [1], the target named is T2, cyp2e1 (Rattus norvegicus, UniProt P05182).
T2 construct: To this cocktail, 1 mg/ml of RLMs; from tissue; host or cells: rat liver microsomes, prepared in-house
T2 sequence (P05182 whole entry): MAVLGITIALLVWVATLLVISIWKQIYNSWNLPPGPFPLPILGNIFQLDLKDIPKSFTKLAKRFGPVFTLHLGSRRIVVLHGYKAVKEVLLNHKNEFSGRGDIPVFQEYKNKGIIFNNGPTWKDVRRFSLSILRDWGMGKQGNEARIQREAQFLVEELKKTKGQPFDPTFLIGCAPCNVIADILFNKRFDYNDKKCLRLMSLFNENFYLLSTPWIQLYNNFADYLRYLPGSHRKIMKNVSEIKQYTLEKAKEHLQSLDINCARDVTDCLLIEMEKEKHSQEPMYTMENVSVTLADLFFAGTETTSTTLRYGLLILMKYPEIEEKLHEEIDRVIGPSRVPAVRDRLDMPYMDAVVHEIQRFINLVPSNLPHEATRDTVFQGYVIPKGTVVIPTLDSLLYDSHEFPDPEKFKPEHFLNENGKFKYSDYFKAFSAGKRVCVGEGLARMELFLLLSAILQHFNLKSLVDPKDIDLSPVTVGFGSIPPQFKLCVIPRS
Nature of the data set: Cocktail method IC50 in rat liver microsomes, chlorzoxazone probe. The class given is in vitro ADME. The method, then: (§1) The cocktail method was employed to analyze the effects of poziotinib on cyp1a2, cyp2b1, cyp2c11, cyp2d1, cyp2e1, and cyp3a1/2. […] Then half-maximal inhibitory concentration (IC50) of poziotinib was determined with all of the CYPs. […]. To this cocktail, 1 mg/ml of RLMs, 100 mM potassium phosphate buffer (pH 7.4), poziotinib (1, 2.5, 5, 10, 25, 50, or 100 μM) were added to obtain a final volume of 200 μL. After pre-incubation of this mixture for 5 min in a shaking water bath at 37°C, 1 mM NADPH was added to start the reaction. The reactions were allowed to proceed for 30 min, after which 200 μL of acetonitrile and 20 μL of IS were added to terminate the reactions. The mixtures were vortexed for 30 s and centrifuged again at 13,000 rpm for 5 min.

A further data set has as its target T3, cyp2c11 (Rattus norvegicus, UniProt P08683).
T3 sequence (P08683 1-500): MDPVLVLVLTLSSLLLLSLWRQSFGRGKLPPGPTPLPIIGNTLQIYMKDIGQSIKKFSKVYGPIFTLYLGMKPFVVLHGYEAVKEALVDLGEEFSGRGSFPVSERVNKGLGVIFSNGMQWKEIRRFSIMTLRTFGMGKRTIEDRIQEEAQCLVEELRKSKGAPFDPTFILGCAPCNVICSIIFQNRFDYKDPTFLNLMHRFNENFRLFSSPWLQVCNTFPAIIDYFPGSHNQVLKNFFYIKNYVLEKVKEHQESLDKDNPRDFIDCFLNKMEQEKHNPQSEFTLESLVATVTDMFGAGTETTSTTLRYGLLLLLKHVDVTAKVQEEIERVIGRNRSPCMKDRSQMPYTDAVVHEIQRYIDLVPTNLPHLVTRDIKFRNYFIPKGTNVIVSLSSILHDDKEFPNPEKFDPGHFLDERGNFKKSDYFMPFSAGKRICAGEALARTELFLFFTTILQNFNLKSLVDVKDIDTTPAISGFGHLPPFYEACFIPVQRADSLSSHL
Nature of the data set: Effect of poziotinib on cyp2c11 activity in rats (tolbutamide pharmacokinetics). The class given is in vivo, Sprague-Dawley rats. Also noted: from tissue; host or cells: living male Sprague-Dawley rats (whole animal). Conditions: poziotinib 5 mg/kg oral 7 days, tolbutamide probe.

Data set [2] concerns cyp2e1. Put plainly: Effect of poziotinib on cyp2e1 activity in rats (chlorzoxazone pharmacokinetics). The class given is in vivo, Sprague-Dawley rats. Conditions: poziotinib 5 mg/kg oral 7 days, chlorzoxazone probe.
Procedure: (§2) Twelve male Sprague-Dawley rats (230 ± 20 g) were randomly divided into treated and control groups, with 6 in each group. […] The supernatant was mixed with 200 μL of acetonitrile and 20 μL of 0.5 μg/ml diazepam (IS), vortexed for 30 s, centrifuged at 13,000 rpm for 5 min, and the supernatant was injected into the UPLC-MS/MS system for analysis.
(§3) Pharmacokinetic parameters were calculated using DAS software (Version 3.2.8). SPSS software (version 16.0; SPSS Inc., Chicago, IL, United States) was used to analyze the significance of differences between the main pharmacokinetic parameters. p < 0.05 was considered statistically significant. GraphPad (version 8.0; GraphPad Software Inc., San Diego, CA, United States) was used to calculate IC50 and plot the plasma concentration-time curves and inhibition plots (type of inhibition, time- and concentration-dependence).
Data set [3] addresses T4, cyp2d1 (Rattus norvegicus, UniProt P10633).
T4 sequence (P10633 1-504): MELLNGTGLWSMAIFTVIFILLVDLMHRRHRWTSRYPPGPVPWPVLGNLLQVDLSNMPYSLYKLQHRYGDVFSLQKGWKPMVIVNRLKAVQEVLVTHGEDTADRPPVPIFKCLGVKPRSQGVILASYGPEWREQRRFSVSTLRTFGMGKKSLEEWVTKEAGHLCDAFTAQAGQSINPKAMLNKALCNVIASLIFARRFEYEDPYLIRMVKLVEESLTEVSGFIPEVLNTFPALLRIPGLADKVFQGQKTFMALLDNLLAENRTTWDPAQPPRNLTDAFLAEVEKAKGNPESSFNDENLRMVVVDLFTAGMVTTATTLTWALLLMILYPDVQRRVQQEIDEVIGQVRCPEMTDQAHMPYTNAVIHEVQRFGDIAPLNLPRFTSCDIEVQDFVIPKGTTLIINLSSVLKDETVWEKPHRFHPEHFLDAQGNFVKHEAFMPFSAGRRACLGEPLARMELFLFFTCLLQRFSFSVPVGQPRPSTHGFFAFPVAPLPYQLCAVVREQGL
Put plainly: Cocktail method IC50 in rat liver microsomes, dextromethorphan probe. The class given is in vitro ADME. The method, then:
as §1

The test system of a further data set is cyp3a1/2. Put plainly: Effect of poziotinib on cyp3a1/2 activity in rats (midazolam pharmacokinetics). It counts as in vivo, Sprague-Dawley rats. Conditions: poziotinib 5 mg/kg oral 7 days, midazolam probe.
Data set [4] concerns the target T4, cyp2d1. Put plainly: Effect of poziotinib on cyp2d1 activity in rats (dextromethorphan pharmacokinetics). It counts as in vivo, Sprague-Dawley rats. On the set-up: from tissue; host or cells: living male Sprague-Dawley rats (whole animal). The conditions noted are these: poziotinib 5 mg/kg oral 7 days, dextromethorphan probe.
Procedure: as §2, §3

Procedure for cyp2c11: as §2, §3
Procedure for cyp3a1/2: as §2, §3

On to `C=CC(=O)N1CCC(Oc2cc3c(Nc4ccc(Cl)c(Cl)c4F)ncnc3cc2OC)CC1` [Poziotinib], for which, at cyp2b1 (Lineweaver-Burk plots), the “type of inhibition of cyp2b1” value is on record as “competitive”. On cyp2b1 (rat liver microsomes, bupropion 5-40 μM, poziotinib 0-16 μM, secondary plot), affinity was put at a Ki of 16.2 µM. For the same compound, the “enzymes producing main metabolites M1 (dihydroxylation) and M2 (demethylation)” value in the data set with CYP3A4 and CYP2D6 is “mainly produced by CYP3A4 and CYP2D6 activity”. The figures for the “inhibitory effect on cyp2e1 (in words)” value at cyp2e1 [1] and against cyp2e1 [1] (listed as poziotinib) were “did not show any obvious inhibitory effect” and “not obvious”, respectively. Further, 156 µM corresponded to half-maximal inhibition against cyp2e1 [1] (40 μM chlorzoxazone, cocktail, 30 min) (IC50). In addition, the “effect on cyp2c11 activity in rats” value on cyp2c11 is on record as “significantly inhibitory effect”. Besides, the “effect on cyp2e1 activity in rats” value with cyp2e1 [2] is on record as “induced cyp2e1 activity”. Also, the results for the “inhibitory effect on cyp2d1 (in words)” value at cyp2d1 [3] and on cyp2d1 [3] (listed as poziotinib) were “weak inhibition” and “not obvious”, respectively. In addition, the IC50 (in general, the concentration at which inhibition is half-maximal) at 30 min against cyp2d1 [3] (pH 7.4, probe dextromethorphan (10 μM), 10 μM dextromethorphan, cocktail, 30 min) amounted to 62 µM. In addition, the “effect on cyp3a1/2 activity in rats” value in the data set on cyp3a1/2 is “no significant inhibitory effect”. Besides, on cyp2d1 [4], the “effect on cyp2d1 activity in rats” value was “no obvious inhibitory effect”.

The record behind these values is article PMC7970697, “Inhibition and Induction by Poziotinib of Different Rat Cytochrome P450 Enzymes In Vivo and in an In Vitro Cocktail Method” (Frontiers in Pharmacology, 2021).
